What all share (type): in vivo
The nature of data set [1]: Pharmacokinetics: serum concentrations of toltrazuril and toltrazuril sulfone in 2 day-old piglets (Example B). On the procedure:
(§1) Protocol • Group 1: 10 piglets 2 days old were injected with once intramuscularly dose of toltrazuril C629 (Dose=20 mg toltrazuril per kg bodyweight—equivalent to 0.4 mL/Kg bodyweight) on SD0 • Group 2: 11 piglets 2 days old were injected with once intramuscularly dose of toltrazuril C629 (Dose=40 mg toltrazuril per kg bodyweight a—equivalent to 0.8 mL/kg bodyweight) on SD0 • Group 3: 9 piglets 2 days old were dosed orally with the standard commercial formulation of toltrazuril Cevazuril® (Dose=20 mg toltrazuril per kg bodyweight—equivalent to 0.4 mL/Kg bodyweight) on SD0. • Group 4: 8 piglets, left untreated.
(§2) All four (4) groups of piglets were injected on SD0 with iron injection (Gleptosil®) at the dose rate of 1 ml per piglet. 3 days after treatment (on SD3), the piglets were orally challenged with a characterised strain of Isospora suis.
(§3) The following study parameters were used to assess the efficacy of the test products: • Local and general tolerance (for Groups 1 and 2) • Occurrence of diarrhoea and faecal consistency • Oocyst excretion • Bodyweight development • Serum concentrations of toltrazuril and its metabolite toltrazuril sulfone (e.g ponazuril) in Group 1, 2 and 3.

Data set [2] in a line: Local and general tolerance of intramuscular toltrazuril in 2 day-old piglets (Example B). As to conditions: all tested doses (i.m. 20 and 40 mg/kg). On the procedure: as §1, §2, §3
A short description of data set [3]: Bodyweight development of piglets on a farm with known history of coccidiosis (Example A). How it is done: (§4) This target animal safety and efficacy study was conducted in a farm with known history of cocciodiosis. The main objective was to study the safety and efficacy of intramuscular injection of toltrazuril in comparison to the standard oral application. • Group 1: 8 piglets 3 days old were injected by a single intramuscular dose of toltrazuril (Dose=20 mg toltrazuril per kg bodyweight equivalent to 0.4 mL/kg bodyweight) on SD0. • Group 2: 8 piglets 3 days old were injected by one intramuscular dose of toltrazuril (60 mg toltrazuril per kg bodyweight equivalent to 1.2 mL/Kg bodyweight) on SD0 • Group 3: 8 piglets 3 days old were dosed orally with the standard commercial formulation of toltrazuril Cevazuril® (Dose=20 mg toltrazuril per kg bodyweight equivalent to 0.4 mL/Kg bodyweight) on SD0 • Group 4: 12 piglets 3 days old, left untreated.
(§5) All four (4) groups of piglets were injected on SD0 with iron (Gleptosil®) at the dose rate of 1 ml per piglet.

Data set [4] concerns Isospora suis. Nature of the data set: Anti-coccidial efficacy in piglets orally challenged with Isospora suis (Example B). How it is done: as §1, §2, §3
Data set [5] can be described thus: Local and general tolerance of a single intramuscular injection of toltrazuril in 3-day old piglets (Example A). On the procedure: as §4, §5
The mark [6] stands for this setting: G1, G2: single i.m. 20 or 40 mg/kg on SD0, Isospora suis challenge on SD3.

As for `Cc1cc(-n2c(=O)[nH]c(=O)n(C)c2=O)ccc1Oc1ccc(SC(F)(F)F)cc1` [toltrazuril], the Absorption result in data set [1] (after intramuscular application, piglets) is listed as “well absorbed”. The “Toltrazuril sulfone (ponazuril) kinetics, oral (G3) versus intramuscular (G1 and G2)” value in data set [1] (metabolite after toltrazuril 20 mg/kg oral vs 20 or 40 mg/kg i.m.) is on record as “not statistically different”. Moreover, the “Serum level of toltrazuril sulfone” value in data set [1] (upon intramuscular injection of toltrazuril (FIGS. 4 and 5)) is “rapid and sustained”. In data set [2], the Tolerance result is “well tolerated”. Also, the “Bodyweight gain versus control non treated piglets” value in data set [3] (intramuscularly treated piglets, at SD0+29 days) is recorded as “+2 kg”. Moreover, the Bodyweight development entry in data set [3] (single i.m. 20 or 60 mg/kg, 3-day old piglets) was “normal”. Further, in data set [4] (setting [6]), the Fecal consistency result is recorded as “unchanged” and the Oocyst excretion entry is “No oocyst excretion was observed”. Besides, the “Weight gain versus control animals (G4)” value in data set [4] (G1, G2: single i.m. 20 or 40 mg/kg, infected piglets) was “gained more weight than the control animals”. The “Time to disappearance of local reaction post injection” value in data set [5] (piglets injected i.m. with 1.2 mL/kg bodyweight) is listed as “less than 1 week”. In addition, the “Local reaction (oedema)” value in data set [5] (piglets injected i.m. with 1.2 mL/kg bodyweight (60 mg/kg)) is “limited local reaction (Oedema) in some piglets”. Also, the General tolerance entry in data set [5] (single intramuscular doses up to 60 mg/kg, 3-day old piglets) was “well tolerated”. Also, the Pain after injection entry in data set [5] (single intramuscular injection, 3-day old piglets) is recorded as “No pain”.

The values are drawn from patent publication US20150320756A1, “TREATMENTS OF COCCIDIOSIS WITH INTRAMUSCULAR TRIAZINE COMPOSITIONS” (CEVA SANTE ANIMALE, priority 2012, published 2015).
